Assay results as given in patent US9340590B2 (priority 2011, dated 2016).
pIC50: −log10 of the molar value. Where two headings read alike, the source gives them in different places. Positions of bridges follow the written chain, without caps; N, C: chain ends. Non-standard residues stand in square brackets, D forms with d. Residues, ends and D or L forms follow the SMILES beside them. Pra = C#CC[C@H](N)C(=O)O

Tests used:
Experiment in all cases: cell-based
hNav1.7 = hNav1.7 (Homo sapiens, UniProt Q15858); type: cell-based; conditions: IonWorks Quattro, read-out: IWQ Use Nav1.7
Sequence of hNav1.7 (Q15858 whole entry, looked up): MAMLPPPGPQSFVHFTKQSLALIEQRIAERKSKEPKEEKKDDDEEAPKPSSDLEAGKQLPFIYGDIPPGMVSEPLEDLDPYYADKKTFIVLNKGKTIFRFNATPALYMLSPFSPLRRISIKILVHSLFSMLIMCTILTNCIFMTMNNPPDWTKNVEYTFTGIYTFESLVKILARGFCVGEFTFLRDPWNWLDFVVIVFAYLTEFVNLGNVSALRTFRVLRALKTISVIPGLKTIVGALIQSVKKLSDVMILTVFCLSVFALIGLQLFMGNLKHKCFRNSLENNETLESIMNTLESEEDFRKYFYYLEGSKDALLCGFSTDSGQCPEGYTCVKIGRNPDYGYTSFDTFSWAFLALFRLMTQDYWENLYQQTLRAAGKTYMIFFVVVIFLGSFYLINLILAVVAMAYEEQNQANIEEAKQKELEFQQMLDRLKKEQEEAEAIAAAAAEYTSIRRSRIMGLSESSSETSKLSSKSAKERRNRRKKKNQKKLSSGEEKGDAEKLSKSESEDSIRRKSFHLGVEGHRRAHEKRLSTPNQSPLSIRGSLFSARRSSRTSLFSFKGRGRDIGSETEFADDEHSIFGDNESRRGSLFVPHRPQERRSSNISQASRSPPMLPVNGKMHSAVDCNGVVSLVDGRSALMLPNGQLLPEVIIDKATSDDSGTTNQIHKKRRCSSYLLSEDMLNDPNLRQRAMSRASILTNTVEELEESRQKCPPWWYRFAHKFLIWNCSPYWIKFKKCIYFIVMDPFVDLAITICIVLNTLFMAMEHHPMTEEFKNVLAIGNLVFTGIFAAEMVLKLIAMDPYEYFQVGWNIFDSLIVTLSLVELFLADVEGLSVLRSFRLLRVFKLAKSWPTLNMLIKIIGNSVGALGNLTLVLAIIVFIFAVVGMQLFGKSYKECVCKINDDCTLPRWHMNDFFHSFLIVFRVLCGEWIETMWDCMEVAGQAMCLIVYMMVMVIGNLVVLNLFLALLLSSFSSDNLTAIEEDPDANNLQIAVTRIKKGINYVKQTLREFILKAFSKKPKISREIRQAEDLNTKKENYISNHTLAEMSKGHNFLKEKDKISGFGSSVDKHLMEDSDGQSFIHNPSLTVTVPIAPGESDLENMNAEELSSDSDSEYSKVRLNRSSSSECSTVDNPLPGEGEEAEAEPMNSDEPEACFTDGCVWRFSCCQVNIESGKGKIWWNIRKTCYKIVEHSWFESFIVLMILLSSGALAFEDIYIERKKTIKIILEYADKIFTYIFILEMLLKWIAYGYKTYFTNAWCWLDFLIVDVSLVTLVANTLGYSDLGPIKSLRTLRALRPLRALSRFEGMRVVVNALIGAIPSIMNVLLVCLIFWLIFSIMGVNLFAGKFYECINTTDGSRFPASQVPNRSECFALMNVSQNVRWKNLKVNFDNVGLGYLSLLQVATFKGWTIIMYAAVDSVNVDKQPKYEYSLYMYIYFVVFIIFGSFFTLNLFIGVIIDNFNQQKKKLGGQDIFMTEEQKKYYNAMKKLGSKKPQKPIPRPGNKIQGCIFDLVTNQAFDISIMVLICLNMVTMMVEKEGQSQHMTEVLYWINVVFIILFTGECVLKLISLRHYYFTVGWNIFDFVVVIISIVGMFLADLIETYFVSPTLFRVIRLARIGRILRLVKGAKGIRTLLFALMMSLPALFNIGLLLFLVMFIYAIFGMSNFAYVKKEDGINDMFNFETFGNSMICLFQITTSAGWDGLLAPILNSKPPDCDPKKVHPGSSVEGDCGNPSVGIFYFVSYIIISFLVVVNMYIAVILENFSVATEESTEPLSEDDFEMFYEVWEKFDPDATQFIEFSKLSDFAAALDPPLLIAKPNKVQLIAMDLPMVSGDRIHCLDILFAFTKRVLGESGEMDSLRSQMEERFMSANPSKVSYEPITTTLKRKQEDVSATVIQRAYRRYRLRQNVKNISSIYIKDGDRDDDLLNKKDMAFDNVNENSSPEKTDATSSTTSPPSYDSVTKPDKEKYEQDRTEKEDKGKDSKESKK

hNav1.5 = hNav1.5 (Homo sapiens, UniProt Q14524); conditions: IonWorks Quattro, read-out: IWQ Use Nav1.5
Sequence of hNav1.5 (Q14524 whole entry, looked up): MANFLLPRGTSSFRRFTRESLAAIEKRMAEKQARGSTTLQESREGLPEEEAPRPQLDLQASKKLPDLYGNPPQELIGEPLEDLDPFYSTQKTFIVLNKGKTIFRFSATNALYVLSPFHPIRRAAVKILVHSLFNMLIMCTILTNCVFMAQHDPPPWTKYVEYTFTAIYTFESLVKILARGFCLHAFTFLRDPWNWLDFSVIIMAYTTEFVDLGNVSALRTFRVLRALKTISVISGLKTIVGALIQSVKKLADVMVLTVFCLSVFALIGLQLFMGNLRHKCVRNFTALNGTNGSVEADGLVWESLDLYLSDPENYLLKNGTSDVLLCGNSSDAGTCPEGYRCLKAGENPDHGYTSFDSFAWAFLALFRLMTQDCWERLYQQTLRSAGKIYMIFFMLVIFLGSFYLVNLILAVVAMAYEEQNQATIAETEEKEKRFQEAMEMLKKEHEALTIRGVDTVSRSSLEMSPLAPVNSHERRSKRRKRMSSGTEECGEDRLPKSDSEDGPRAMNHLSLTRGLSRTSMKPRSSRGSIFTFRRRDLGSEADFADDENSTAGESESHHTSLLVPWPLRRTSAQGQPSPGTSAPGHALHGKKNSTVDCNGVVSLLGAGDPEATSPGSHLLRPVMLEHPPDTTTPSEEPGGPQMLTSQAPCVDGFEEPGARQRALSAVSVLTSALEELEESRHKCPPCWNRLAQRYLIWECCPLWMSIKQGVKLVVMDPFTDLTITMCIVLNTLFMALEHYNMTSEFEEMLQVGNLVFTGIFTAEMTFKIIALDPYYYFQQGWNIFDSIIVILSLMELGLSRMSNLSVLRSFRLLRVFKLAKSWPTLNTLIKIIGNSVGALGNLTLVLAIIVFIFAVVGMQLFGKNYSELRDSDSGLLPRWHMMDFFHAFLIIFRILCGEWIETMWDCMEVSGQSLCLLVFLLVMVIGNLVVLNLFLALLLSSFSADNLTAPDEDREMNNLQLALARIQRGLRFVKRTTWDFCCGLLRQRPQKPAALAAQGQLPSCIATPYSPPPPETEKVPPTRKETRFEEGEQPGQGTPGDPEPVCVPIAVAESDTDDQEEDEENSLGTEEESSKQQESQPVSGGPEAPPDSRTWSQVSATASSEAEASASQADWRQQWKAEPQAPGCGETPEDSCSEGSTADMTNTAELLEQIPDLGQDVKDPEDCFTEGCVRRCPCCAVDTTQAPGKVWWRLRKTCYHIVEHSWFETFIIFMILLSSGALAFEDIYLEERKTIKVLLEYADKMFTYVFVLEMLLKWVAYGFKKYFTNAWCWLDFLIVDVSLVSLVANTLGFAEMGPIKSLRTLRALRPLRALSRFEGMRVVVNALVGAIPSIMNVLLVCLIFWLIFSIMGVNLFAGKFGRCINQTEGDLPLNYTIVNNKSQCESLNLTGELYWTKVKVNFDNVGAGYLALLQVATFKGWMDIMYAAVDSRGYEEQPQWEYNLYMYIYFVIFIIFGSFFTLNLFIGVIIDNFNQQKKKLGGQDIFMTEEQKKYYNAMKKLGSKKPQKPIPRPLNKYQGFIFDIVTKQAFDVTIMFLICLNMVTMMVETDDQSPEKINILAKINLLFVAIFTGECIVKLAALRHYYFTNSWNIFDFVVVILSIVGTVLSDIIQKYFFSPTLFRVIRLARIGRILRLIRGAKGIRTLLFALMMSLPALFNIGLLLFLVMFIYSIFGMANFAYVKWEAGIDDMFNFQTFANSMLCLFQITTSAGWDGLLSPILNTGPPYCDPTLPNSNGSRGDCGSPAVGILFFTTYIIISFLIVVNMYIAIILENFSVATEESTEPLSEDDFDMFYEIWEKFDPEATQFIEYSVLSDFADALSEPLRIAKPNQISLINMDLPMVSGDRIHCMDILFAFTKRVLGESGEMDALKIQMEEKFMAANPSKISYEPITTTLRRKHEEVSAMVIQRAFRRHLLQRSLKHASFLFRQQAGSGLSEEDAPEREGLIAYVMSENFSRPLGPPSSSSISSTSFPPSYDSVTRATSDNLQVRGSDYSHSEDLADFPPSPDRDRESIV

hNav1.3 = hNav1.3 (Homo sapiens, UniProt Q9NY46); conditions: IonWorks Quattro, read-out: IWQ Use Nav1.3

SMILES: CC[C@H](C)[C@@H]1NC(=O)[C@@H]2CSSC[C@@H]3NC(=O)[C@H](C(C)C)NC(=O)[C@H](CC(C)C)NC(=O)[C@H](CC(N)=O)NC(=O)[C@@H]4CCCN4C(=O)[C@H](CCCNC(=N)N)NC(=O)[C@H](CSSC[C@H](NC(=O)[C@@H](N)CC(=O)O)C(=O)N[C@@H](CC(C)C)C(=O)NCC(=O)N[C@@H](C)C(=O)N[C@@H](Cc4cccc5ccccc45)C(=O)N[C@@H](CCCNC(=N)N)C(=O)N[C@@H](CCCCN)C(=O)N2)NC(=O)[C@H](CSSC[C@@H](C(=O)N[C@@H](CCCCN)C(=O)N[C@@H](Cc2ccc(O)cc2)C(=O)N[C@H](C(=O)N[C@@H](Cc2ccccc2)C(N)=O)C(C)C)NC(=O)[C@H](Cc2c[nH]c4ccccc24)NC(=O)[C@H](CCCCN)NC(=O)[C@H](Cc2cnc[nH]2)NC(=O)[C@H]([C@@H](C)O)NC(=O)[C@H](CCCNC(=N)N)NC(=O)[C@H](CO)NC3=O)NC(=O)[C@H](CCCCN)NC(=O)[C@H](CC(=O)O)NC(=O)[C@H](CC(N)=O)NC(=O)[C@H](CC(=O)O)NC(=O)[C@@H]2CCCN2C1=O [compound 256]
- pIC50 (hNav1.7; use-dependent block, hNav1.7): 7.00
- pIC50 (hNav1.5; use-dependent block, hNav1.5): 5.30
- pIC50 (hNav1.3; use-dependent block, hNav1.3): 7.22

SMILES: CC[C@H](C)[C@@H]1NC(=O)[C@@H]2CSSC[C@@H]3NC(=O)[C@H](C(C)C)NC(=O)[C@H](CC(C)C)NC(=O)[C@H](Cc4c[nH]c5ccccc45)NC(=O)[C@@H]4CCCN4C(=O)[C@H](CCCNC(=N)N)NC(=O)[C@H](CSSC[C@H](NC(=O)[C@@H](N)CC(=O)O)C(=O)N[C@@H](CC(C)C)C(=O)NCC(=O)N[C@@H](Cc4ccccc4)C(=O)N[C@@H](CCSC)C(=O)N[C@@H](CCCNC(=N)N)C(=O)N[C@@H](CCCCN)C(=O)N2)NC(=O)[C@H](CSSC[C@@H](C(=O)N[C@@H](CCCCN)C(=O)N[C@@H](Cc2ccc(O)cc2)C(=O)N[C@H](C(=O)N[C@@H](Cc2ccccc2)C(N)=O)C(C)C)NC(=O)[C@H](Cc2c[nH]c4ccccc24)NC(=O)[C@H](CCCCN)NC(=O)[C@H](Cc2cnc[nH]2)NC(=O)[C@H]([C@@H](C)O)NC(=O)[C@H](CCCNC(=N)N)NC(=O)[C@H](CO)NC3=O)NC(=O)[C@H](CCCCN)NC(=O)[C@H](CC(=O)O)NC(=O)[C@H](CC(N)=O)NC(=O)[C@H](CC(=O)O)NC(=O)[C@@H]2CCCN2C1=O [compound 175] (H-DCLGFMRKCIPDNDKCCRPWLVCSRTHKWCKYVF-NH2; disulfide 2-17, 9-23, 16-30)
- pIC50 (hNav1.7; Use): 7.30
- pIC50 (hNav1.5; Use): 5.13
- pIC50 (hNav1.3; Use): 7.70

SMILES: CC[C@H](C)[C@@H]1NC(=O)[C@@H]2CSSC[C@@H]3NC(=O)[C@H](C(C)C)NC(=O)[C@H](CC(C)C)NC(=O)[C@H](CC(N)=O)NC(=O)[C@@H]4CCCN4C(=O)[C@H](CCCNC(=N)N)NC(=O)[C@H](CSSC[C@H](NC(=O)[C@@H](N)CC(=O)O)C(=O)N[C@@H](CC(C)C)C(=O)NCC(=O)N[C@@H](Cc4ccccc4)C(=O)N[C@@H](CCSC)C(=O)N[C@@H](CCCNC(=N)N)C(=O)N[C@@H](CCCCN)C(=O)N2)NC(=O)[C@H](CSSC[C@@H](C(=O)N[C@@H](CCCCN)C(=O)N[C@@H](Cc2ccc(O)cc2)C(=O)N[C@H](C(=O)N[C@@H](Cc2ccccc2)C(N)=O)C(C)C)NC(=O)[C@H](CC(C)C)NC(=O)[C@H](CCCCN)NC(=O)[C@H](Cc2c[nH]cn2)NC(=O)[C@H]([C@@H](C)O)NC(=O)[C@H](CCCNC(=N)N)NC(=O)[C@H](CO)NC3=O)NC(=O)[C@H](CCCCN)NC(=O)[C@H](CC(=O)O)NC(=O)[C@H](CC(N)=O)NC(=O)[C@H](CC(=O)O)NC(=O)[C@@H]2CCCN2C1=O [compound 114] (H-DCLGFMRKCIPDNDKCCRPNLVCSRTHKLCKYVF-NH2; disulfide 2-17, 9-23, 16-30)
- pIC50 (hNav1.7; Table 24, use, […]): 5.16
- pIC50 (hNav1.5; Table 24, use, […]): 5.14
- pIC50 (hNav1.3; Table 24, use, […]): 5.01

SMILES: CC[C@H](C)[C@@H]1NC(=O)[C@@H]2CSSC[C@@H]3NC(=O)[C@H](C(C)C)NC(=O)[C@H](CC(C)C)NC(=O)[C@H](CC(N)=O)NC(=O)[C@@H]4CCCN4C(=O)[C@H](CCCNC(=N)N)NC(=O)[C@H](CSSC[C@H](NC(=O)[C@@H](N)CC(=O)O)C(=O)N[C@@H](CC(C)C)C(=O)NCC(=O)N[C@@H](Cc4ccccc4)C(=O)N[C@@H](CCSC)C(=O)N[C@@H](CCCNC(=N)N)C(=O)N[C@@H](C)C(=O)N2)NC(=O)[C@H](CSSC[C@@H](C(=O)N[C@@H](CCCCN)C(=O)N[C@@H](Cc2ccc(O)cc2)C(=O)N[C@H](C(=O)N[C@@H](Cc2ccccc2)C(N)=O)C(C)C)NC(=O)[C@H](Cc2c[nH]c4ccccc24)NC(=O)[C@H](CCCCN)NC(=O)[C@H](Cc2cnc[nH]2)NC(=O)[C@H]([C@@H](C)O)NC(=O)[C@H](CCCNC(=N)N)NC(=O)[C@H](CO)NC3=O)NC(=O)[C@H](CCCCN)NC(=O)[C@H](CC(=O)O)NC(=O)[C@H](CC(N)=O)NC(=O)[C@H](CC(=O)O)NC(=O)[C@@H]2CCCN2C1=O [[Ala8]GpTx-1(1-34)] (H-DCLGFMRACIPDNDKCCRPNLVCSRTHKWCKYVF-NH2; disulfide 2-17, 9-23, 16-30)
- pIC50 (hNav1.7; use-dependent block, hNav1.7): 6.31
- pIC50 (hNav1.5; use-dependent block, hNav1.5): 4.78
- pIC50 (hNav1.3; use-dependent block, hNav1.3): 6.39

SMILES: CC[C@H](C)[C@@H]1NC(=O)[C@@H]2CSSC[C@@H]3NC(=O)[C@H](C(C)C)NC(=O)[C@H](CC(C)C)NC(=O)[C@H](CC(N)=O)NC(=O)[C@@H]4CCCN4C(=O)[C@H](CCCNC(=N)N)NC(=O)[C@H](CSSC[C@H](NC(=O)[C@@H](N)CC(=O)O)C(=O)N[C@@H](CC(C)C)C(=O)NCC(=O)N(C)CC(=O)N[C@@H](CC(C)C)C(=O)N[C@@H](CCCNC(=N)N)C(=O)N[C@@H](CCCCN)C(=O)N2)NC(=O)[C@H](CSSC[C@@H](C(=O)N[C@@H](CCCCN)C(=O)N[C@@H](Cc2ccc(O)cc2)C(=O)N[C@H](C(=O)N[C@@H](Cc2ccccc2)C(N)=O)C(C)C)NC(=O)[C@H](Cc2c[nH]c4ccccc24)NC(=O)[C@H](CCCCN)NC(=O)[C@H](Cc2c[nH]cn2)NC(=O)[C@H]([C@@H](C)O)NC(=O)[C@H](CCCNC(=N)N)NC(=O)[C@H](CO)NC3=O)NC(=O)[C@H](CCCCN)NC(=O)[C@H](CC(=O)O)NC(=O)[C@H](CC(N)=O)NC(=O)[C@H](CC(=O)O)NC(=O)[C@@H]2CCCN2C1=O [compound 646]
- pIC50 (hNav1.7; use-dependent protocol, hNav1.7): 6.04
- pIC50 (hNav1.5; use-dependent protocol, hNav1.5): < 5.30
- pIC50 (hNav1.3; use-dependent protocol, hNav1.3): 5.77

SMILES: C#CC[C@@H]1NC(=O)[C@H](CC(=O)O)NC(=O)[C@@H]2CCCN2C(=O)[C@H]([C@@H](C)CC)NC(=O)[C@@H]2CSSC[C@@H]3NC(=O)[C@H](C(C)C)NC(=O)[C@H](CC(C)C)NC(=O)[C@H](CC(N)=O)NC(=O)[C@@H]4CCCN4C(=O)[C@H](CCCNC(=N)N)NC(=O)[C@H](CSSC[C@H](NC(=O)[C@@H](N)CC(=O)O)C(=O)N[C@@H](CC(C)C)C(=O)NCC(=O)N[C@@H](C)C(=O)N[C@@H](CC(C)C)C(=O)N[C@@H](CCCNC(=N)N)C(=O)N[C@@H](CCCCN)C(=O)N2)NC(=O)[C@H](CSSC[C@@H](C(=O)N[C@@H](CCCCN)C(=O)N[C@@H](Cc2ccc(O)cc2)C(=O)N[C@H](C(=O)N[C@@H](Cc2ccccc2)C(N)=O)C(C)C)NC(=O)[C@H](Cc2c[nH]c4ccccc24)NC(=O)[C@H](CCCNC(=N)N)NC(=O)[C@H](Cc2c[nH]cn2)NC(=O)[C@H](CC(C)C)NC(=O)[C@H](CCCNC(=N)N)NC(=O)[C@H](CO)NC3=O)NC(=O)[C@H](CCCCN)NC(=O)[C@H](CC(=O)O)NC1=O [compound 796] (H-DCLGALRKCIPD[Pra]DKCCRPNLVCSRLHRWCKYVF-NH2; disulfide 2-17, 9-23, 16-30)
- pIC50 (hNav1.7; use-dependent block, hNav1.7): 6.66
- pIC50 (hNav1.5; use-dependent block, hNav1.5): 4.44
- pIC50 (hNav1.3; use-dependent block, hNav1.3): 6.32

SMILES: CC[C@H](C)[C@@H]1NC(=O)[C@@H]2CSSC[C@@H]3NC(=O)CNC(=O)[C@H](CC(C)C)NC(=O)[C@H](CC(N)=O)NC(=O)[C@@H]4CCCN4C(=O)[C@H](CCCNC(=N)N)NC(=O)[C@H](CSSC[C@H](NC(=O)[C@@H](N)CC(=O)O)C(=O)N[C@@H](CC(C)C)C(=O)NCC(=O)N[C@@H](Cc4ccccc4)C(=O)N[C@@H](CCSC)C(=O)N[C@@H](CCCNC(=N)N)C(=O)N[C@@H](CCCCN)C(=O)N2)NC(=O)[C@H](CSSC[C@@H](C(=O)N[C@@H](CCCCN)C(=O)N[C@@H](Cc2ccc(O)cc2)C(=O)N[C@H](C(=O)N[C@@H](Cc2ccccc2)C(N)=O)C(C)C)NC(=O)[C@H](Cc2c[nH]c4ccccc24)NC(=O)[C@H](CCCCN)NC(=O)[C@H](Cc2c[nH]cn2)NC(=O)[C@H]([C@@H](C)O)NC(=O)[C@H](CCCNC(=N)N)NC(=O)[C@H](CO)NC3=O)NC(=O)[C@H](CCCCN)NC(=O)[C@H](CC(=O)O)NC(=O)[C@H](CC(N)=O)NC(=O)[C@H](CC(=O)O)NC(=O)[C@@H]2CCCN2C1=O [compound 324] (H-DCLGFMRKCIPDNDKCCRPNLGCSRTHKWCKYVF-NH2; disulfide 2-17, 9-23, 16-30)
- pIC50 (hNav1.7; Use): 6.85
- pIC50 (hNav1.5; Use): 4.96
- pIC50 (hNav1.3; Use): 7.00
